Entries after “also recorded” stand apart in the source; their conditions may differ.
Columns and labels:
[1] = tested on: oligodendrocyte progenitor cells (OPCs), OPC-5; test: Differentiation of OPCs to MBP+ oligodendrocytes (in vitro phenotypic screening, high-content imaging); assay type: cell-based, mouse
Protocol: To rigorously assess effects of small molecule and genetic treatments on OPCs, all treatments were assayed in two batches of epiblast stem cell-derived OPCs, and key results were confirmed using mouse primary OPCs. OPCs were generated from two separate EpiSC lines, EpiSC5 (giving rise to OPC-5 OPCs) and 12901 (giving rise to OPC-1 OPCs). EpiSC-derived OPCs were obtained using in vitro differentiation protocols and culture conditions described previously. To ensure uniformity throughout all in vitro screening experiments, EpiSC-derived OPCs were sorted to purity by fluorescence activated cell sorting at passage five with conjugated CD 140a-APC (eBioscience, 17-1401; 1:80) and NG2-AF488 (Millipore, AB5320A4; 1:100) antibodies. Sorted batches of OPCs were expanded and frozen down in aliquots. OPCs were thawed into growth conditions for one passage before use in further assays. Cultures were regularly tested and shown to be mycoplasma free.
EpiSC-derived OPCs were grown and expanded in poly-ornithine (PO) and laminin-coated flasks with growth medium (DMEM/F12 supplemented with N2-MAX (R&D Systems), B-27 (ThermoFisher), GlutaMax (Gibco), FGF2 ([…], R&D systems, 233-FB-025) and PDGF-AA ([…], R&D systems, 233-AA-050) before harvesting for plating. The cells were seeded onto poly-D-lysine 96-well CellCarrier or CellCarrierUltra plates (PerkinElmer) coated with laminin (Sigma, L2020; 15 μg/ml) using multi-channel pipet. For the experiment, 800,000 cells/mL stock in differentiation medium (DMEM/F12 supplemented with N2-MAX and B-27) was prepared and stored on ice for 2 h. Then, 40,000 cells were seeded per well in differentiation medium and allowed to attach for 30 min before addition of drug. For dose-response testing of all molecules except sterols, a 1000× compound stock in dimethyl sulphoxide (DMSO) was added to assay plates with 0.1 μL solid pin multi-blot replicators (V & P Scientific; VP 409), resulting in a final primary screening concentration of 1×. Cells were incubated under standard conditions (37° C., 5% CO2) for 3 days and fixed with 4% paraformaldehyde (PFA) in phosphate buffered saline (PBS) for 20 min. Fixed plates were washed with PBS (200 μL per well) twice, permeabilized with 0.1% Triton X-100 and blocked with 10% donkey serum (v/v) in PBS for 40 min. Then, cells were labelled with MBP antibodies (Abcam, ab7349; 1:200) for 16 h at 4° C. followed by detection with Alexa Fluor conjugated secondary antibodies (1:500) for 45 min. Nuclei were visualized by DAPI staining (Sigma; 1 μg/ml). During washing steps, PBS was added using a multi-channel pipet and aspiration was performed using Biotek EL406 washer dispenser (Biotek) equipped with a 96-well aspiration manifold.
Plates were imaged on the Operetta High Content Imaging and Analysis system (PerkinElmer) and a set of 6 fields captured from each well resulting in an average of 1200 cells being scored per well. Analysis (PerkinElmer Harmony and Columbus software) began by identifying intact nuclei stained by DAPI; that is, those traced nuclei that were larger than 300 μm2 in surface area. Each traced nucleus region was then expanded by 50% and cross-referenced with the […] (MBP) stain to identify oligodendrocyte nuclei, and from this the percentage of oligodendrocytes was calculated.

[2] = tested on: cholesterol biosynthesis in OPCs (CYP51, TM7SF2, EBP); test: GC/MS-based sterol profiling in OPCs; assay type: cell-based, mouse; details: range of doses, GC-MS sterol profiling, FIG. 3f
Protocol: EpiSC-derived OPCs were plated at 0.5 million cells per ml in PDL- and laminin-coated six or twelve well plate with differentiation media. After 24 hours, cells were dissociated with Accutase, rinsed with saline, and cell pellets were frozen. For sterol analyses, cells were lysed in methanol (Sigma-Aldrich) with agitation for 30 minutes and cell debris removed by centrifugation at 10,000 rpm for 15 min. Cholesterol-d7 standard (25,26,26,26,27,27,27-^2H7-cholesterol, Cambridge Isotope Laboratories) was added before drying under nitrogen stream and derivatization with 55 μl of bis(trimethylsilyl)trifluoroacetamide/trimethylchlorosilane to form trimethylsilyl derivatives. Following derivatization at 60° C. for 20 minutes, 1 μl was analyzed by gas chromatography/mass spectrometry using an Agilent 5973 Network Mass Selective Detector equipped with a 6890 gas chromatograph system and a HP-5MS capillary column ([…]). Samples were injected in splitless mode and analyzed using electron impact ionization. Ion fragment peaks were integrated to calculate sterol abundance, and quantitation was relative to cholesterol-d7. The following m/z ion fragments were used to quantitate each metabolite: cholesterol-d7 (465), FF-Mas (482), cholesterol (368), zymostenol (458), zymosterol (456), desmosterol (456, 343), 7-dehydrocholesterol (456, 325), lanosterol (393), lathosterol (458), 14-dehydrozymostenol (456). Calibration curves were generated by injecting varying concentrations of sterol standards and maintaining a fixed amount of cholesterol-D7. The human glioma cell line GBM528 was a gift of Jeremy Rich (Cleveland Clinic). Human cortical spheroids were generated as described previously.

[3] = tested on: EpiSC derived OPCs on microfibers; test: Oligodendrocyte formation and imaging on electrospun microfibers; assay type: cell-based, mouse; details: FIG. 4b
Protocol: A 12-well plate containing Mimetex aligned scaffold (microfiber plate, AMSBIO, AMS.TECL-006-1X, Electrospun poly-L-lactide Scaffold, […] fibre diameter cell crown inserts) was prepared as previously described. Briefly, fiber inserts were sterilized with 70% ethanol and washed with PBS before being coated with polyornithine and laminin. After laminin coating, 100,000 cells/mL of EpiSC derived OPCs (1.5 mL/well) were plated in differentiation medium. After 24 h the media was replaced with fresh media containing small molecule treatments. Every 48 h the media was replaced with fresh compound containing media for the first 4 days of 14 days culture. Microfibre inserts were fixed with 4% PFA, permeabilized with 0.1% Triton X-100, and blocked with 10% donkey serum (v/v) in PBS for 60 min. Then stained for MBP (Abcam, ab7349; 1:100) and DAPI staining (Sigma; 5 μg/ml). […] The mounted inserts were imaged on the Operetta High Content Imaging and Analysis system (PerkinElmer) and a set of 22 fields captured from each condition resulting in an average of 2000 cells being scored per well. The total microfiber area was calculated using bright filed imaging and a spot finding function (area larger than 2 p×2). The MBP+ pixel area within the defined microfiber area was then defined and the percentage of the total microfiber area calculated.

kappa opioid receptor = kappa opioid receptor (Homo sapiens, UniProt P41145); test: k-Opioid receptor agonism assay (Tango  U2OS cells); assay type: cell-based; details: Compound 1 at 1 μM, TASIN-1 100 nM, U50488 2 μM
kappa opioid receptor, sequence (P41145 whole entry): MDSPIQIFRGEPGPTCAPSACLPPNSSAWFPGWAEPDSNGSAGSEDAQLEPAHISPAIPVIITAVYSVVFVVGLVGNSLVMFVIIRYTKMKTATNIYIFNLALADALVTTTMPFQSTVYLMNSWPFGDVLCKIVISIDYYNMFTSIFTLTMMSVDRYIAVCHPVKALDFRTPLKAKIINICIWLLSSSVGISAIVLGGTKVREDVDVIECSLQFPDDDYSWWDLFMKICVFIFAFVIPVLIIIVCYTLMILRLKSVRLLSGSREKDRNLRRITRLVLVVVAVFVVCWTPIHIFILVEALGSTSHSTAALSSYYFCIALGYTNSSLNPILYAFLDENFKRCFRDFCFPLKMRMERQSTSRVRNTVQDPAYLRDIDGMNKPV

## c1ccc(-c2ccc(CN3CCCCCCC3)cc2)cc1 [Compound 1]
[1]; Mus musculus, Oligodendrocyte progenitor cell, 0.03 μM, 72 h treatment, read-out: % enhancement of MBP+ oligodendrocyte generation at 0.03 μM concentration
  activation at 0.03 µM: 20 to 30%
[1]; Mus musculus, Oligodendrocyte progenitor cell, 0.1 μM, 72 h treatment, read-out: % enhancement of MBP+ oligodendrocyte generation at 0.1 μM concentration
  activation at 0.1 µM: > 40%
[1]; Mus musculus, Oligodendrocyte progenitor cell, 0.3 μM, 72 h treatment, read-out: % enhancement of MBP+ oligodendrocyte generation at 0.3 μM concentration
  activation at 0.3 µM: > 40%
[1]; Mus musculus, Oligodendrocyte progenitor cell, 1 μM, 72 h treatment, read-out: % enhancement of MBP+ oligodendrocyte generation at 1 μM concentration
  activation at 1 µM: > 40%
[1]; OPC-5, FIGS. 2a-2c
  enhancement of oligodendrocyte formation (in words): near maximal effects observed at 110 nM; also recorded: near maximal effects on oligodendrocyte formation at 110 nM
[2]
  EBP inhibition in OPCs (zymostenol): enhanced potency for EBP inhibition
[3]
  area of microfibers wrapped by MBP+ oligodendrocytes: substantially increased
Kappa opioid receptor
  effect in cell-based assay for the kappa opioid receptor: little affinity

Source: patent US12048678B2, “Compounds for treating myelin related disorders” (Case Western Reserve University, priority 2018, dated 2024)
